Test results as given in PubChem BioAssay AID732 (Emory University Molecular Libraries Screening Center, 2007).
Active and inactive are the calls of the source. No rule for the calls is given here.

These compounds were tested on in vivo angiogenesis, blood vessel count (assay: angiogenesis inhibition in living animals, in vivo study, HTS (AID 732;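 also: zebrafish embryos dosed at one day post fertilization; 0% = reference inhibitor and 100% = plate mean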)). Conditions: stronger effect = lower value;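 tested at 30 µM in the well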.
With CCN(CC)c1ncnc2c1ncn2[C@@H]1O[C@H](COP(=O)(O)OP(=O)(O)C(Br)(Br)P(=O)(O)O)[C@@H](O)[C@H]1O the vessel count % control was 81.9% (inactive).
In the case of NC(N)=NCCSSCCN=C(N)N, the vessel count % control was 93.7% (inactive).
CC(C)OC(=O)C(C)(C)Oc1ccc(C(=O)c2ccc(Cl)cc2)cc1 was tested, and the vessel count % control was 89.2% (inactive).
In the case of Cc1c(C)c2c(c(C)c1O)CCC(C)(CN1CCN(c3cc(N4CCCC4)nc(N4CCCC4)n3)CC1)O2 (stereo unspecified), the vessel count % control was 99.2% (inactive).
With C[N+](C)(C)CCCCCCCCCC[N+](C)(C)C the vessel count % control was 100% (inactive).
For CC(=O)OCC(=O)[C@@]1(O)CC[C@H]2[C@@H]3CCC4=CC(=O)CC[C@]4(C)[C@H]3C(=O)C[C@@]21C, the vessel count % control was 97.3% (inactive).
For COc1ccccc1NC(=O)Nc1nc(-c2cccnc2)nc2ccccc12, the vessel count % control was 85.6% (inactive).
For CNC[C@H](O)c1cccc(O)c1, the vessel count % control was 109% (inactive).
NC(Cc1cccc(-c2ccccc2CP(=O)(O)O)c1)C(=O)O (stereo unspecified) was tested, and the vessel count % control was 106% (inactive).
For NCCS(=O)O, the vessel count % control was 107% (inactive).
With CCCN(CCC)[C@H]1CCc2c(F)ccc(O)c2C1 the vessel count % control was 93.1% (inactive).
With NCC(O)c1ccc(O)c(O)c1 (stereo unspecified) the vessel count % control was 108% (inactive).
N=C(N)SCCc1ccc(CCSC(=N)N)cc1 was tested, and the vessel count % control was 72.6% (inactive).
For CCN1CCc2nc(N)oc2CC1, the vessel count % control was 96.4% (inactive).
Nc1ncnc2c1ncn2[C@@H]1O[C@H](COP(=O)(O)CP(=O)(O)OP(=O)(O)O)[C@H](O)C1O (stereo partly specified) was tested, and the vessel count % control was 95.1% (inactive).
OC[C@H]1NC[C@@H](O)[C@@H]1O was tested, and the vessel count % control was 96% (inactive).
CC(C)C[C@H](NC(=O)[C@H](O)[C@H](N)Cc1ccccc1)C(=O)O was tested, and the vessel count % control was 104% (inactive).
Cc1cccc(C)c1NC1=NCCCS1 was tested, and the vessel count % control was 114% (inactive).
For Cc1nc2ccccn2c(=O)c1CCN1CCC(C(=O)c2ccc(F)cc2)CC1, the vessel count % control was 94.9% (inactive).
In the case of CCCn1c(=O)c2[nH]c(C3CCCC3)nc2n(CCC)c1=O, the vessel count % control was 78.9% (inactive).
For CC1(C(=O)O)C2CCC(O2)C1(C)C(=O)O (stereo unspecified), the vessel count % control was 0% (inactive).
With O=C(CCCN1CCC(O)(c2ccc(Cl)cc2)CC1)c1ccc(F)cc1 the vessel count % control was 77.9% (inactive).
With COC(=O)[C@H](NC(=O)c1cc(-c2ccccc2)nc2ccccc12)c1ccccc1 the vessel count % control was 97.2% (inactive).
For CC(COc1ccc(/C=C/c2ccccc2)cc1)[N+](C)(C)C (stereo unspecified), the vessel count % control was 106% (inactive).
N#CC(C#N)=C(N)/C(C#N)=C/c1ccc(O)cc1 was tested, and the vessel count % control was 93% (inactive).
For NC(=O)c1ncn([C@@H]2O[C@H](CO)[C@@H](O)[C@H]2O)n1, the vessel count % control was 63.2% (inactive).
For O=S(=O)(O)C1CCNCC1, the vessel count % control was 89.3% (inactive).
With CN1CCN(C(=O)OC2c3nccnc3C(=O)N2c2ccc(Cl)cn2)CC1 (stereo unspecified) the vessel count % control was 105% (inactive).
CCCN(CCC)CCc1cccc2c1CC(=O)N2 was tested, and the vessel count % control was 96.5% (inactive).
In the case of NC1CONC1=O (stereo unspecified), the vessel count % control was 117% (inactive).
For Clc1ccc(Cn2c(CN3CCCC3)nc3ccccc32)cc1, the vessel count % control was 81.8% (inactive).
In the case of CCCCCCCC/C=C\CCCCCCCC(=O)NCCc1ccc(O)c(O)c1, the vessel count % control was 115% (inactive).
In the case of CCCCCCCCCCCCCCCCCC(=O)OC(CC(=O)O)C[N+](C)(C)C (stereo unspecified), the vessel count % control was 71.9% (inactive).
For CC(O)C(O)[C@H]1CNc2nc(N)[nH]c(=O)c2N1 (stereo partly specified), the vessel count % control was 125% (inactive).
NC(Cn1oc(=O)[nH]c1=O)C(=O)O (stereo unspecified) was tested, and the vessel count % control was 129% (inactive).
With OCCN1CCN(CCCN2c3ccccc3Sc3ccc(C(F)(F)F)cc32)CC1 the vessel count % control was 116% (inactive).
For CCNC(=O)N1CCN(CCCC(c2ccc(F)cc2)c2ccc(F)cc2)CC1, the vessel count % control was 83.9% (inactive).
For CCC1(O)CC2CN(CCc3c([nH]c4ccccc34)[C@@](C(=O)OC)(c3cc4c(cc3OC)N(C=O)C3[C@]45CCN4CC=C[C@@](CC)([C@@H](OC(C)=O)[C@]3(O)C(=O)OC)[C@H]45)C2)C1 (stereo partly specified), the vessel count % control was 109% (inactive).
With CC(C)NC[C@H](O)COc1ccc(CC(N)=O)cc1 the vessel count % control was 86.6% (inactive).
O=C(O)c1cc2cc(F)ccc2[nH]1 was tested, and the vessel count % control was 104% (inactive).
In the case of CC(C)(C)c1onc(OCP(=O)(O)O)c1CC(N)C(=O)O (stereo unspecified), the vessel count % control was 88.9% (inactive).
Cc1c(C(=O)c2cccc3ccccc23)c2cccc3c2n1[C@H](CN1CCOCC1)CO3 was tested, and the vessel count % control was 0% (inactive).
O=C(O)c1cc2cc(Cc3cccnc3)ccc2o1 was tested, and the vessel count % control was 100% (inactive).
With CCN1CCC[C@H]1CNC(=O)c1c(O)c(Cl)cc(Cl)c1OC the vessel count % control was 103% (inactive).
In the case of CNC[C@H](O)c1ccc(O)c(O)c1, the vessel count % control was 94% (inactive).
NC(=NCCC[C@H](N)C(=O)O)NO was tested, and the vessel count % control was 99% (inactive).
In the case of CN1C[C@@H](CS(=O)(=O)N(C)C)C[C@@H]2c3cccc4c3c(cn4C)C[C@H]21, the vessel count % control was 103% (inactive).
For O=C1Cc2c([nH]c3ccc(Br)cc23)-c2ccccc2N1, the vessel count % control was 101% (inactive).
With CC(=O)[C@H]1CCC2C3CC[C@H]4C[C@H](O)CC[C@]4(C)C3CC[C@@]21C (stereo partly specified) the vessel count % control was 68.7% (inactive).
For OCC1NC[C@@H](O)C(O)[C@@H]1O (stereo partly specified), the vessel count % control was 89.4% (inactive).
For O=C(O)CCC(=O)N1CCCC1C(=O)O (stereo unspecified), the vessel count % control was 109% (inactive).
